Laboratory results taken from US6399575B1, “Methods and compositions for targeting compounds to the central nervous system” (Auburn University, priority 1998, dated 2002).
Entries after “also recorded” stand apart in the source; their conditions may differ.

Key:
skeletal muscle = conditions: as described in U.S. Pat. No. 6,329,501; cited from earlier work
brain tissue = assay: in vivo selection of brain-binding phage-displayed peptides by panning in mice; design: species or system BALB/c mice; conditions: phage library injected intravenously, 30 min to 1 hour circulation, brain tissue recovered, four rounds
Description: FIG. 1 provides the scheme for selection of tissue specific phage in vivo. In this example, candidate brain-binding peptides were selected by panning in BALB/c mice. In round one of selection, the phage library was injected intravenously. After thirty minutes of circulation, the mice were euthanized by carbon dioxide inhalation, perfused with 60 ml of ice cold PBS via the left ventricle, and brain tissue was recovered from the animals. The tissue was minced into small pieces and rinsed repeated in PBS, followed by homogenization in lysis buffer. The tissue homogenate was then incubated with fresh E coli cells and the phage present allowed to infect and lyse the bacteria. Phage were recovered by polyethylene glycol precipitation of the lysate. In subsequent rounds, the phage purified from brain tissues recovered in the previous round was injected intravenously, and tissue was recovered after thirty to sixty minutes of circulation. After the last round, the phages were plated on a lawn of bacteria and a number of pliage plaques were isolated and the DNA sequenced. Of these, a certain percentage represented the dominant selected clone.
To remove unbound, non-specific phage, from the parenchyma of the tissue, the screening protocol of Example 2 was modified. After intravenous administration, the phage were left in circulation for 1 hour (30 minutes in Example 2) to allow more phage clones with CNS binding affinity to reach their target. CNS tissue samples were then homogenized in TBS buffer instead of the lysis buffer which was used at this step previously. Tissue homogenates were pelleted by centrifugation and the supernatant was discarded. The pellet was washed two more times in TBS to remove unbound phage. The pellet was re-homogenized in lysis buffer and the remainder of the selection protocol was completed as described in Example 2. The following brain specific peptides were determined: […]

Substance	binding to skeletal muscle (skeletal muscle)	binding to brain (brain tissue)
GETRAPL [Gly-Glu-Thr-Arg-Ala-Pro-Leu]	capable of binding to skeletal muscle; also recorded: also binds skeletal muscle	binding to brain
SSHTISF [Ser-Ser-His-Thr-Ile-Ser-Phe, brain specific peptide selected by in vivo phage display]		specific for binding to the brain
LPLTPLP [Leu-Pro-Leu-Thr-Pro-Leu-Pro, brain specific peptide selected by in vivo phage display]		specific for binding to the brain
LFTPPVL [Leu-Phe-Thr-Pro-Pro-Val-Leu, brain specific peptide selected by in vivo phage display]		specific for binding to the brain
LPHQNNR [Leu-Pro-His-Gln-Asn-Asn-Arg, brain specific peptide selected by in vivo phage display]		specific for binding to the brain
QPTASLT [Gln-Pro-Thr-Ala-Ser-Leu-Thr, brain specific peptide selected by in vivo phage display]		specific for binding to the brain
